Data taken from patent US10131652B2, “Pyrimidinyloxy benzene derivatives as herbicides” (E. I. DU PONT DE NEMOURS AND COMPANY, priority 2014, dated 2018).
Where two headings read alike, the source gives them in different places.

Key:
Assay type in all cases: in vivo
[1] = test system: barnyardgrass (Echinochloa crus-galli); assay: Test B pre-/postemergence plant response; conditions: Echinochloa crus-galli, 240 h, 1000 g ai/ha, 0 to 100 scale (0 no effect, 100 complete control), read-out: Plant response rating, Barnyardgrass
In short: (§1)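 Greenhouse pots, loam/sand soil; compound formulated with surfactant in non-phytotoxic solvent. Preemergence soil spray and postemergence spray at 1–2 leaf stage run simultaneously. Visual injury, 0–100, about 10 days post-treatment.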

corn (Zea mays) = assay: Test B pre-/postemergence plant response; conditions: Zea mays, post-emergence, 240 h; Postemergence, 1000 g ai/ha; 0 to 100 scale (0 no effect, 100 complete control)
In short: as §1

[2] = test system: giant foxtail (Setaria faberii); assay: Test B pre-/postemergence plant response; conditions: Setaria faberi, 240 h, 1000 g ai/ha, 0 to 100 scale (0 no effect, 100 complete control), read-out: Plant response rating, Foxtail, Giant
In short: as §1

[3] = test system: pigweed (Amaranthus retroflexus); assay: Test B pre-/postemergence plant response; conditions: Amaranthus retroflexus, 240 h, 1000 g ai/ha, 0 to 100 scale (0 no effect, 100 complete control), read-out: Plant response rating, Pigweed
In short: as §1

[4] = test system: wheat (Triticum aestivum); assay: Test B pre-/postemergence plant response; conditions: Triticum aestivum, post-emergence, 240 h; Postemergence, 1000 g ai/ha; 0 to 100 scale (0 no effect, 100 complete control); read-out: Plant response rating, Wheat
In short: as §1

[5] = test system: barnyardgrass (Echinochloa crus-galli); assay: Test C flooded paddy test plant response; conditions: Echinochloa crus-galli; Flood, 250 g ai/ha; scale of 0 to 100 where 0 is no effect and 100 is complete control; 13 to 15 days; read-out: Barnyardgrass plant response rating
In short: (§2)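 2-leaf plants; flood 3 cm, cpd into paddy water; greenhouse 13–15 d; visual score vs untreated, 0 = no effect, 100 = complete control; dash = no result.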

[6] = test system: ducksalad (Heteranthera limosa); assay: Test C flooded paddy test plant response; conditions: Heteranthera limosa; Flood, 250 g ai/ha; scale of 0 to 100 where 0 is no effect and 100 is complete control; 13 to 15 days; read-out: Ducksalad plant response rating
In short: as §2

rice (Oryza sativa) = assay: Test C flooded paddy test plant response; conditions: Oryza sativa; Flood, 250 g ai/ha; scale of 0 to 100 where 0 is no effect and 100 is complete control; 13 to 15 days; read-out: Rice plant response rating
In short: as §2

[7] = test system: small-flower umbrella sedge (Cyperus difformis); assay: Test C flooded paddy test plant response; conditions: Cyperus difformis; Flood, 250 g ai/ha; scale of 0 to 100 where 0 is no effect and 100 is complete control; 13 to 15 days; read-out: Sedge, Umbrella plant response rating
In short: as §2

[8] = test system: blackgrass (Alopecurus myosuroides); assay: Test D pre-/postemergence plant response; conditions: Alopecurus myosuroides; for pest or weed control at 16 g/ha: 16 g ai/ha; for pest or weed control at 31 g/ha: 31 g ai/ha; for pest or weed control at 62 g/ha: 62 g ai/ha; for pest or weed control at 125 g/ha: 125 g ai/ha
Description: (§3) Seeds of plant species selected from blackgrass (Alopecurus myosuroides), Italian ryegrass (Lolium multiflorum), winter wheat (Triticum aestivum), galium (catchweed bedstraw, Galium aparine), corn (Zea mays), large (Lg) crabgrass (Digitaria sanguinalis), giant foxtail (Setaria faberii), johnsongrass (Sorghum halepense), lambsquarters (Chenopodium album), morningglory (Ipomoea coccinea), yellow nutsedge (Cyperus esculentus), pigweed (Amaranthus retroflexus), ragweed (common ragweed, Ambrosia elatior), soybean (Glycine max), bamyardgrass (Echinochloa crus-galli), oilseed rape (Brassica napus), waterhemp (common waterhemp, Amaranthus rudis), and velvetleaf (Abutilon theophrasti) were planted into a blend of loam soil and sand and treated preemergence with test chemicals formulated in a non-phytotoxic solvent mixture which included a surfactant. At the same time, plants selected from these crop and weed species and also kochia (Kochia scoparia), wild oat (Avena fatua), and chickweed (common chickweed, Stellaria media) were planted in pots containing Redi-Earth® planting medium (Scotts Company, 14111 Scottslawn Road, Marysville, Ohio 43041) comprising spaghnum peat moss, vermiculite, wetting agent and starter nutrients and treated with postemergence applications of test chemicals formulated in the same manner. Plants ranged in height from 2 to 18 cm (1- to 4-leaf stage) for postemergence treatments. Treated plants and controls were maintained in a greenhouse for 13 to 15 days, after which time all species were compared to controls and visually evaluated. Plant response ratings, summarized in Table D, are based on a scale of 0 to 100 where 0 is no effect and 100 is complete control. A dash (-) response means no test result.

[9] = test system: galium (catchweed bedstraw, Galium aparine); assay: Test D pre-/postemergence plant response; conditions: Galium; for pest or weed control at 16 g/ha: 16 g ai/ha; for pest or weed control at 31 g/ha: 31 g ai/ha; for pest or weed control at 62 g/ha: 62 g ai/ha; for pest or weed control at 125 g/ha: 125 g ai/ha
Description: as §3

[10] = test system: johnsongrass (Sorghum halepense); assay: Test D pre-/postemergence plant response; conditions: Sorghum halepense; for pest or weed control at 16 g/ha: 16 g ai/ha; for pest or weed control at 125 g/ha: 125 g ai/ha
Description: as §3

[11] = post-emergence, Postemergence, scale 0 to 100 (0 no effect, 100 complete control), read-out: Blackgrass plant response rating
[12] = post-emergence, Postemergence, scale 0 to 100, 0 no effect, 100 complete control, read-out: Plant response rating, Blackgrass
[13] = pre-emergence, Preemergence, scale 0 to 100 (0 no effect, 100 complete control), read-out: Plant response rating, Blackgrass
[14] = post-emergence, Postemergence, scale 0 to 100 (0 no effect, 100 complete control), read-out: Galium plant response rating
[15] = post-emergence, Postemergence, scale 0 to 100, 0 no effect, 100 complete control, read-out: Plant response rating, Galium
[16] = pre-emergence, Preemergence, scale 0 to 100 (0 no effect, 100 complete control), read-out: Plant response rating, Galium

Fc1cccc(Oc2ncc(Cl)cn2)c1-c1cc(C(F)F)on1 [Compound 55, 5-chloro-2-[2-[5-(difluoromethyl)-3-isoxazolyl]-3-fluorophenoxy]pyrimidine]
pest or weed control at 1000 g/ha ([1]; post-emergence, Postemergence): 100%
pest or weed control at 1000 g/ha ([1]; pre-emergence, Preemergence): 100%
Corn plant response rating (crop injury, 0 = no effect, 100 = complete kill) at 1000 g/ha (corn (Zea mays)): 100%
pest or weed control at 1000 g/ha ([2]; post-emergence, Postemergence): 100%
pest or weed control at 1000 g/ha ([2]; pre-emergence, Preemergence): 100%
pest or weed control at 1000 g/ha ([3]; post-emergence, Postemergence): 100%
pest or weed control at 1000 g/ha ([3]; pre-emergence, Preemergence): 100%
plant injury at 1000 g/ha [4]: 100%
pest or weed control at 250 g/ha [5]: 25%
pest or weed control at 250 g/ha [6]: 100%
plant injury at 250 g/ha (rice (Oryza sativa)): 25%
pest or weed control at 250 g/ha [7]: 90%
pest or weed control at 16 g/ha [8, 11]: 5%
pest or weed control at 31 g/ha [8, 11]: 10%
pest or weed control at 62 g/ha [8, 12]: 30%
pest or weed control at 125 g/ha [8, 12]: 50%
pest or weed control at 125 g/ha ([8]; pre-emergence, Preemergence, read-out: Plant response rating (scale 0 to 100), Blackgrass): 90%
pest or weed control at 16 g/ha [8, 13]: 15%
pest or weed control at 31 g/ha [8, 13]: 90%
pest or weed control at 62 g/ha [8, 13]: 90%
pest or weed control at 16 g/ha [9, 14]: 80%
pest or weed control at 31 g/ha [9, 14]: 90%
pest or weed control at 62 g/ha [9, 15]: 90%
pest or weed control at 125 g/ha [9, 15]: 90%
pest or weed control at 125 g/ha ([9]; pre-emergence, Preemergence, read-out: Plant response rating (scale 0 to 100), Galium): 100%
pest or weed control at 16 g/ha [9, 16]: 100%
pest or weed control at 31 g/ha [9, 16]: 100%
pest or weed control at 62 g/ha [9, 16]: 100%
pest or weed control at 16 g/ha ([10]; post-emergence, Postemergence, scale 0 to 100 (0 no effect, 100 complete control), read-out: Johnsongrass plant response rating): 5%
pest or weed control at 31 g/ha ([10]; post-emergence, Postemergence, 31 g ai/ha, scale 0 to 100 (0 no effect, 100 complete control), read-out: Johnsongrass plant response rating): 5%
pest or weed control at 62 g/ha ([10]; post-emergence, Postemergence, 62 g ai/ha, scale 0 to 100, 0 no effect, 100 complete control, read-out: Plant response rating, Johnsongrass): 10%
pest or weed control at 125 g/ha ([10]; post-emergence, Postemergence, scale 0 to 100, 0 no effect, 100 complete control, read-out: Plant response rating, Johnsongrass): 15%
pest or weed control at 125 g/ha ([10]; pre-emergence, Preemergence, read-out: Plant response rating (scale 0 to 100), Johnsongrass): 100%
pest or weed control at 16 g/ha ([10]; pre-emergence, Preemergence, scale 0 to 100 (0 no effect, 100 complete control), read-out: Plant response rating, Johnsongrass): 30%
